Measurements as given in US12503444B2, “Compound containing benzene ring and application thereof” (WUHAN LL SCIENCE AND TECHNOLOGY DEVELOPMENT CO., LTD., priority 2019, dated 2025).
pIC50: −log10 of the molar value. Read-outs that look alike come from different tables or passages of the source.

Tests used:
[1] = In vitro metabolic stability, liver microsome incubation (human); type: in vitro ADME; conditions: human, liver microsomes, 1 mg/mL liver microsome protein, 37° C., read-out: T1/2 in human liver microsome min
Procedure: (§1) The in vitro metabolic stability of the compounds disclosed herein was determined through incubation of liver microsomes of various species. A proper amount of test compound was added into a liver microsome reaction system (1 mg/mL liver microsome protein, 25 U/mL glucose-6 phosphate dehydrogenase, 1 mM NADP, 6 mM D-glucose 6-phosphate and 5 mM MgCl2), and then the mixture was incubated in a water bath kettle at 37° C. to start the reaction. At each time point, 100 μL of the reaction system was added into a centrifuge tube containing 400 μL of internal standard working solution (containing a 200 ng/mL solution of dexamethasone, diclofenac, tolbutamide and labetalol in acetonitrile) precooled at 0° C. so as to stop the reaction, and the mixture was then centrifuged at 10,000 g for 10 min at 4° C. The supernatant was collected for LC-MS assay so as to obtain the values of in vitro metabolic half-life of the test compounds in liver microsomes of various species.

[2] = In vitro metabolic stability, liver microsome incubation (guinea pig); type: in vitro ADME; conditions: guinea pig, liver microsomes; 1 mg/mL liver microsome protein, 37° C.; read-out: T1/2 in guinea pig liver microsome min
Procedure: as §1

[3] = In vitro cytotoxicity assay in HepG2 cells, CCK-8 method; conditions: human
Procedure: In vitro cytotoxicity assay for the compounds disclosed herein was performed in HepG2 cells using the CCK-8 method. HepG2 cells (Beina Bio) in the logarithmic growth phase were collected, the concentration of cell suspension was adjusted, and then the cells were plated on a 96-well cell culture plate at 50,000 cells/well. The cells were then incubated overnight in a cell incubator (5%/humidity, 37° C.), and after 80-90% cell confluence was achieved, test compounds or vehicle (DMSO) at various concentration gradients were added after medium change. The resulting mixture was incubated in the cell incubator (5% humidity, 37° C.) for 48 h. After the treatment, the medium in the plate was discarded. The plate was washed twice with PBS, added with CCK-8 working solution (Beyotime) at 100 μL per well, and then incubated at 37° C. for 1.5 h away from the light. Absorbance at OD450 nm was measured for each well on a microplate reader, and CC50 value of each compound was analyzed and calculated.

[4] = target: T1, hP2X4 (human purinergic P2X receptor subtype 4) (Homo sapiens, UniProt Q99571); test: FLIPR assay of intracellular calcium increase induced by activation of hP2X4 expressed in HEK293 cells (agonist BZ-ATP 2.5 μM); type: cell-based; conditions: HEK293 cells stably expressing hP2X4, FLIPR, read-out: P2X4 IC50
T1 sequence (Q99571 1-404 isoform Q99571-2): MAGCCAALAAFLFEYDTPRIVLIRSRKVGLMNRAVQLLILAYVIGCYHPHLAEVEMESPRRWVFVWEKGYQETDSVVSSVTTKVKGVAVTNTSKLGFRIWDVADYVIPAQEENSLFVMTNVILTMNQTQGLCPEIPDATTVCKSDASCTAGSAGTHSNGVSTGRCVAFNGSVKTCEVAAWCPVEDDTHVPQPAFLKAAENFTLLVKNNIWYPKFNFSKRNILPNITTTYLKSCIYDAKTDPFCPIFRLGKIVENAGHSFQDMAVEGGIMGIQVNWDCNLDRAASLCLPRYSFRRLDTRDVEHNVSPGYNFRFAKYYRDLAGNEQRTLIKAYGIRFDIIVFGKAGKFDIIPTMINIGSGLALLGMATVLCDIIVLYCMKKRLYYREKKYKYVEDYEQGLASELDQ
How it was run: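 HEK293 cells stably expressing hP2X4, loaded with Calcium 6 dye for 1.5 h at 37° C, then preincubated with compound 30 min at room temperature.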

[5] = In vitro metabolic stability, liver microsome incubation (rat); type: in vitro ADME; conditions: rat, 1 mg/mL liver microsome protein, 37° C., read-out: T1/2 in rat liver microsome min
Procedure: as §1

[6] = tested on: Male Dunkin Hartley guinea pigs; test: Citric acid only cough model in guinea pigs; type: in vivo; conditions: guinea pig, 17.5% citric acid
Procedure: Male Dunkin Hartley guinea pigs (300-350 g) were placed in an animal atomization box, and then the door of the atomization box was closed while the ultrasonic atomizer (Guangdong Yuehua) was turned on. 17.5% citric acid gas was introduced into the atomization box at a maximum atomization rate (about 2 mL/min) for 20 s, and coughs of the animals within 10 min were continuously observed from the time of the start of atomization. During the 10-min observation, coughs of the animals needed to be counted manually, and the number of coughs were judged according to cough postures of the guinea pigs, such as abdominal twitching, mouth opening, and head inclining downward abruptly. The number of coughs during the first 5 min and that during 10 min were recorded, and the cough latency of the guinea pigs, namely the time from the initiation of citric acid induction to the appearance of the 1st cough, was also recorded.
Cough inhibition rate Vs vehicle represents the percentage of reduction
[formula] in the number of coughs in the administration group compared to the vehicle group upon citric acid challenge; Cough inhibition rate Vs baseline represents the percentage of reduction
[formula] in the number of coughs in the administration group before and after administration.

[7] = 60 mg/kg group, before administration (baseline)

SMILES: NS(=O)(=O)c1cc(NC(=O)Cc2ccccc2Cl)cc2n[nH]cc12 [Compound 2, 2-(2-chlorophenyl)-N-(4-sulfamoyl-2H-indazol-6-yl)acetamide]
- half-life [1]: 2.57 h
- half-life [2]: 3.54 h
- CC50 at 48 h [3]: > 200000 nM
- pIC50 ([4]; numeric values): 8.27
- half-life ([5]; liver microsomes): 0.809 h

SMILES: CCCn1cc2c(S(N)(=O)=O)cc(NC(=O)Cc3ccccc3Cl)cc2n1 [Compound 5-A, 2-(2-chlorophenyl)-N-(2-propyl-4-sulfonylamino-2H-indazol-6-yl)acetamide]
- half-life [1]: 5.96 h
- half-life [2]: 0.0978 h
- CC50 at 48 h [3]: > 200000 nM
- pIC50 ([4]; numeric values): 8.28
- half-life ([5]; liver microsomes): 2.37 h

SMILES: CC(C)CCn1cc2c(S(N)(=O)=O)cc(NC(=O)Cc3ccccc3Cl)cc2n1 [Compound 8-A, 2-(2-chlorophenyl)-N-(2-isopentyl-4-sulfamoyl-2H-indazol-6-yl)acetamide]
- half-life [1]: 0.584 h
- CC50 at 48 h [3]: > 200000 nM
- pIC50 ([4]; numeric values): 7.86

SMILES: NS(=O)(=O)c1cc(NC(=O)Cc2ccccc2Cl)cc2nn(CC(F)F)cc12 [Compound 12-A, 2-(2-chlorophenyl)-N-(2-(2,2-difluoroethyl)-4-sulfamoyl-2H-indazol-6-yl)acetamide]
- half-life ([1]; symbol NA): > 106 h
- CC50 at 48 h [3]: > 200000 nM
- pIC50 ([4]; numeric values): 7.51

SMILES: NS(=O)(=O)c1cc(NC(=O)Cc2ccccc2Cl)cc2c1cnn2CC1CCC1 [Compound 24-B, 2-(2-chlorophenyl)-N-(1-(cyclobutylmethyl)-4-sulfamoyl-1H-indazol-6-yl)acetamide]
- half-life [1]: 1.84 h
- half-life [2]: 2.41 h
- CC50 at 48 h [3]: > 200000 nM
- pIC50 ([4]; class symbols): ≥ 8.00
- half-life ([5]; liver microsomes): 0.768 h

SMILES: CC(C)OCCn1cc2c(S(N)(=O)=O)cc(NC(=O)Cc3ccccc3Cl)cc2n1 [Compound 26-A, 2-(2-chlorophenyl)-N-(2-(2-isopropoxyethyl)-4-sulfamoyl-2H-indazol-6-yl)acetamide]
- half-life [1]: 2.09 h
- CC50 at 48 h [3]: > 200000 nM
- pIC50 ([4]; numeric values): 8.21

SMILES: COc1ccc(Cn2cc3c(S(N)(=O)=O)cc(NC(=O)Cc4ccccc4Cl)cc3n2)cc1 [Compound 35-A, 2-(2-chlorophenyl)-N-(2-(4-methoxybenzyl)-4-sulfamoyl-2H-indazol-6-yl)acetamide]
- half-life [1]: 6.21 h
- CC50 at 48 h [3]: > 200000 nM
- pIC50 ([4]; class symbols): 7.30 to 8.00

SMILES: COc1ccc(Cn2ncc3c(S(N)(=O)=O)cc(NC(=O)Cc4ccccc4Cl)cc32)cc1 [Compound 35-B, 2-(2-chlorophenyl)-N-(1-(4-methoxybenzyl)-4-sulfamoyl-1H-indazol-6-yl)acetamide]
- half-life [1]: 4.66 h
- CC50 at 48 h [3]: > 200000 nM
- pIC50 ([4]; class symbols): 7.30 to 8.00

SMILES: NS(=O)(=O)c1cc(NC(=O)Cc2ccccc2Cl)cc2c1cnn2-c1ccc(F)cc1 [Compound 44, 2-(2-chlorophenyl)-N-(1-(4-fluorophenyl)-4-sulfamoyl-1H-indazol-6-yl)acetamide]
- half-life [1]: 5.08 h
- half-life [2]: 1.2 h
- pIC50 ([4]; numeric values): 7.43
- half-life ([5]; microsomes): 1.53 h

SMILES: NS(=O)(=O)c1cc(NC(=O)Cc2ccccc2Cl)cc2cn(CC3CC3)nc12 [Compound 47, 2-(2-chlorophenyl)-N-(2-(cyclopropylmethyl)-7-sulfamoyl-2H-indazol-5-yl)acetamide]
- half-life [1]: 13.1 h
- CC50 at 48 h [3]: > 200000 nM
- pIC50 ([4]; numeric values): 7.77

SMILES: NS(=O)(=O)c1cc(NC(=O)Cc2ccccc2Cl)cc2nc(-c3ccccc3)[nH]c12 [Compound 53, 2-(2-chlorophenyl)-N-(2-phenyl-7-sulfamoyl-1H-benzo[d]imidazol-5-yl)acetamide]
- half-life [1]: 3.79 h
- half-life [2]: 0.154 h
- pIC50 ([4]; class symbols): 5.30 to 6.70
- half-life ([5]; liver microsomes): 0.753 h

SMILES: NS(=O)(=O)c1cc(NC(=O)Cc2ccccc2Cl)cc2nn(Cc3ccc(F)cc3)cc12 [Compound 88, 2-(2-chlorophenyl)-N-(2-(4-fluorobenzyl)-4-sulfamoyl-2H-indazol-6-yl)acetamide]
- half-life [1]: 8.54 h
- half-life [2]: 2 h
- CC50 at 48 h [3]: > 200000 nM
- pIC50 ([4]; class symbols): ≥ 8.00
- half-life ([5]; liver microsomes): 2.07 h

SMILES: Nc1ccc(Cn2cc3c(S(N)(=O)=O)cc(NC(=O)Cc4ccccc4Cl)cc3n2)cn1 [Compound 101, N-(2-((6-aminopyridin-3-yl)methyl)-4-sulfamoyl-2H-indazol-6-yl)-2-(2-chlorophenyl)acetamide]
- half-life [1]: 1.86 h
- pIC50 ([4]; class symbols): 7.30 to 8.00

SMILES: Nc1ccc(Cn2ncc3c(S(N)(=O)=O)cc(NC(=O)Cc4ccccc4Cl)cc32)cn1 [Compound 101A, N-(1-((6-aminopyridin-3-yl)methyl)-4-sulfamoyl-1H-indazol-6-yl)-2-(2-chlorophenyl)acetamide]
- half-life [1]: 1.19 h
- pIC50 ([4]; class symbols): 7.30 to 8.00

SMILES: NS(=O)(=O)c1cc(NC(=O)Cc2ccccc2Cl)cc2nn(CC3CCOC3)cc12 (stereo not drawn) [Compound 110, 2-(2-chlorophenyl)-N-(4-sulfamoyl-2-((tetrahydrofuran-3-yl)methyl)-2H-indazol-6-yl)acetamide]
- half-life [1]: 7.18 h
- pIC50 ([4]; class symbols): 6.70 to 7.30
- half-life ([5]; liver microsomes): 1.15 h

SMILES: NS(=O)(=O)c1cc(NC(=O)Cc2ccccc2Cl)cc2c1cnn2CC1CCOC1 (stereo not drawn) [Compound 110A, 2-(2-chlorophenyl)-N-(4-sulfamoyl-1-((tetrahydrofuran-3-yl)methyl)-1H-indazol-6-yl)acetamide]
- half-life [1]: 0.882 h
- pIC50 ([4]; class symbols): 5.30 to 6.70
- half-life ([5]; liver microsomes): 0.335 h

SMILES: NS(=O)(=O)c1cc(NC(=O)Cc2ccccc2Cl)cc2nn(CC3CCCO3)cc12 (stereo not drawn) [Compound 120, 2-(2-chlorophenyl)-N-(4-sulfamoyl-2-((tetrahydrofuran-2-yl)methyl)-2H-indazol-6-yl)acetamide]
- half-life [1]: 1.06 h
- pIC50 ([4]; class symbols): 6.70 to 7.30
- half-life ([5]; liver microsomes): 0.226 h

SMILES: NS(=O)(=O)c1cc(NC(=O)Cc2ccccc2Cl)cc2c1cnn2CC1CCCO1 (stereo not drawn) [Compound 120A, 2-(2-chlorophenyl)-N-(4-sulfamoyl-1-((tetrahydrofuran-2-yl)methyl)-1H-indazol-6-yl)acetamide]
- half-life [1]: 0.371 h
- pIC50 ([4]; class symbols): 6.70 to 7.30
- half-life ([5]; liver microsomes): 0.137 h

SMILES: CCC(F)(F)n1cc2c(S(N)(=O)=O)cc(NC(=O)Cc3ccccc3Cl)cc2n1 [Compound 133, 2-(2-chlorophenyl)-N-(2-(1,1-difluoropropyl)-4-sulfamoyl-2H-indazol-6-yl)acetamide]
- half-life [1]: 25 h
- CC50 at 48 h [3]: > 100000 nM
- pIC50 ([4]; class symbols): 7.30 to 8.00
- half-life ([5]; liver microsomes): 2.26 h

SMILES: C=CC(F)(F)n1cc2c(S(N)(=O)=O)cc(NC(=O)Cc3ccccc3Cl)cc2n1 [Compound 134, 2-(2-chlorophenyl)-N-(2-(1,1-difluoroallyl)-4-sulfamoyl-2H-indazol-6-yl)acetamide]
- half-life [1]: 13.7 h
- pIC50 ([4]; class symbols): 7.30 to 8.00
- half-life ([5]; liver microsomes): 3.22 h

SMILES: NS(=O)(=O)c1cc(NC(=O)Cc2ccccc2Cl)cc2nn(CC3CCOCC3)cc12 [Compound 141, 2-(2-chlorophenyl)-N-(4-sulfamoyl-2-((tetrahydro-2H-pyran-4-yl)methyl)-2H-indazol-6-yl)acetamide]
- half-life [1]: 1.07 h
- pIC50 ([4]; class symbols): 6.70 to 7.30
- half-life ([5]; liver microsomes): 0.226 h

SMILES: COc1ccc2c(c1)[C@]13CCCC[C@@H]1[C@H](C2)N(C)CC3 [Dextromethorphan, dextromethorphan, reference compound]
- Cough inhibition rate Vs vehicle (%) ([6]; 60 mg/kg): 33.95%
- Cough latency [6, 7]: 73.43 s
- Mean number of coughs [6, 7]: 18.57
- Cough latency ([6]; 60 mg/kg, after administration): 154.29 s
- Mean number of coughs ([6]; 60 mg/kg, after administration): 12.71
- Cough inhibition rate Vs baseline (%) ([6]; 60 mg/kg, before vs after administration): 31.54%
